# Measurements from ChEMBL document CHEMBL3621085, “Tetrazole regioisomers in the development of nitro group-containing antitubercular agents” (Medchemcomm, 2015).
# What was measured:
# Mycobacterium kansasii [1] = test: Antimycobacterial activity against Mycobacterium kansasii My 235/80 after 21 days by micromethod; type: functional; details: My 235/80, 504 h
# Mycobacterium kansasii [2] = test: Antimycobacterial activity against Mycobacterium kansasii 6509/96 after 14 days by micromethod; type: functional; details: 6509/96, 336 h
# Mycobacterium kansasii [3] = test: Antimycobacterial activity against Mycobacterium kansasii 6509/96 after 21 days by micromethod; type: functional; details: 6509/96, 504 h
# Mycobacterium kansasii [4] = test: Antimycobacterial activity against Mycobacterium kansasii 6509/96 after 7 days by micromethod; type: functional; details: 6509/96, 168 h
# [5] = test system: Mycobacterium tuberculosis; test: Antimycobacterial activity against Mycobacterium tuberculosis My 331/88 after 21 days by micromethod; type: functional; details: My 331/88, 504 h
# [6] = test system: Mycobacterium tuberculosis; test: Antimycobacterial activity against Mycobacterium tuberculosis My 331/88 after 14 days by micromethod; type: functional; details: My 331/88, 336 h
# Mycobacterium avium [7] = test: Antimycobacterial activity against Mycobacterium avium My 330/88 after 21 days by micromethod; type: functional; details: My 330/88, 504 h
# Mycobacterium kansasii [8] = test: Antimycobacterial activity against Mycobacterium kansasii My 235/80 after 7 days by micromethod; type: functional; details: My 235/80, 168 h
# Mycobacterium avium [9] = test: Antimycobacterial activity against Mycobacterium avium My 330/88 after 14 days by micromethod; type: functional; details: My 330/88, 336 h
# Mycobacterium kansasii [10] = test: Antimycobacterial activity against Mycobacterium kansasii My 235/80 after 14 days by micromethod; type: functional; details: My 235/80, 336 h
# [11] = Cytotoxicity against CHOK1 cells assessed as viability after 24 hrs by MTT assay; type: cell-based; details: Cricetulus griseus, CHO-K1, 24 h
SMILES,MIC (Mycobacterium kansasii [1]) [µM],MIC (Mycobacterium kansasii [2]) [µM],MIC (Mycobacterium kansasii [3]) [µM],MIC (Mycobacterium kansasii [4]) [µM],MIC [5] [µM],MIC [6] [µM],MIC (Mycobacterium avium [7]) [µM],MIC (Mycobacterium kansasii [8]) [µM],MIC (Mycobacterium avium [9]) [µM],MIC (Mycobacterium kansasii [10]) [µM],IC50 [11] [µM]
Cn1nnnc1SCc1cc([N+](=O)[O-])cc([N+](=O)[O-])c1,32,32,32,16,8,4,1000,4,500,16,–
O=[N+]([O-])c1ccc(C[Se]c2nnnn2Cc2ccc([N+](=O)[O-])cc2)cc1,125,62,62,32,125,62,250,62,250,125,–
Cn1nnnc1[Se]Cc1cc([N+](=O)[O-])cc([N+](=O)[O-])c1,32,32,32,16,8,8,500,8,500,32,–
O=[N+]([O-])c1ccc(C[Se]c2nnn(Cc3ccc([N+](=O)[O-])cc3)n2)cc1,125,125,125,62,62,62,250,32,250,125,–
O=[N+]([O-])c1ccc(CSc2nnn(Cc3ccccc3)n2)c([N+](=O)[O-])c1,62,16,32,8,4,4,62,16,32,32,21
O=[N+]([O-])c1cc(Cn2nnc([Se]Cc3ccccc3)n2)cc([N+](=O)[O-])c1,32,32,32,16,8,8,16,8,16,16,118
COc1ccc(C[Se]c2nnnn2Cc2ccc([N+](=O)[O-])cc2[N+](=O)[O-])cc1,62,16,32,4,8,4,125,16,125,32,–
O=[N+]([O-])c1ccc(C[Se]c2nnnn2Cc2ccccc2)c([N+](=O)[O-])c1,125,62,125,16,16,8,250,16,250,32,8.5
Cn1nnc([Se]Cc2cc([N+](=O)[O-])cc([N+](=O)[O-])c2)n1,8,4,4,2,2,1,250,2,250,4,–
COc1ccc(C[Se]c2nnnn2Cc2cc([N+](=O)[O-])cc([N+](=O)[O-])c2)cc1,62,32,62,16,16,16,125,16,125,32,–
O=[N+]([O-])c1ccc(Cn2nnnc2[Se]Cc2ccccc2)c([N+](=O)[O-])c1,62,62,125,16,2,1,32,32,16,62,–
O=[N+]([O-])c1cc(CSc2nnn(Cc3ccc(Cl)c(Cl)c3)n2)cc([N+](=O)[O-])c1,32,32,32,16,1,1,125,8,125,16,150
O=[N+]([O-])c1ccc(C[Se]c2nnn(Cc3ccccc3)n2)c([N+](=O)[O-])c1,32,32,62,32,16,16,62,16,62,16,22
O=[N+]([O-])c1ccc(CSc2nnn(Cc3ccc([N+](=O)[O-])cc3)n2)cc1,250,250,250,250,250,250,250,250,250,250,–
